The results in this text go back to ChEMBL document CHEMBL1147983.

A word on the IC50: it is the concentration needed to halve the response being measured. Read a low IC50 as greater potency.

The target in experiment [1] is T1, Aurora kinase A (Homo sapiens, UniProt O14965).
T1 sequence (O14965 whole entry): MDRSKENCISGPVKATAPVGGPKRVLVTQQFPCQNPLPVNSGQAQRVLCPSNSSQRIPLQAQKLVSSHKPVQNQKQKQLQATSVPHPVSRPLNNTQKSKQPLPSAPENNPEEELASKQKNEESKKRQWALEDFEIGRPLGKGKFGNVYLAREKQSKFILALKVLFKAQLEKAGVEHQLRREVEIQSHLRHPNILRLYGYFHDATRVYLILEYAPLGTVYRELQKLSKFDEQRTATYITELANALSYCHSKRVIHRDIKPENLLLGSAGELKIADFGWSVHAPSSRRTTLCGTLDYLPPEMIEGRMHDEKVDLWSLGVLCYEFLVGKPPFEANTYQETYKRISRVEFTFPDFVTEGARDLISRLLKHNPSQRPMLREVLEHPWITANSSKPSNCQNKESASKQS

For experiment [2], the target named is Epidermal growth factor receptor (Homo sapiens, UniProt P00533). Nature of the experiment: Inhibition of EGFR.

The structures appear in SMILES notation.

Chain of Epidermal growth factor receptor (P00533 whole entry): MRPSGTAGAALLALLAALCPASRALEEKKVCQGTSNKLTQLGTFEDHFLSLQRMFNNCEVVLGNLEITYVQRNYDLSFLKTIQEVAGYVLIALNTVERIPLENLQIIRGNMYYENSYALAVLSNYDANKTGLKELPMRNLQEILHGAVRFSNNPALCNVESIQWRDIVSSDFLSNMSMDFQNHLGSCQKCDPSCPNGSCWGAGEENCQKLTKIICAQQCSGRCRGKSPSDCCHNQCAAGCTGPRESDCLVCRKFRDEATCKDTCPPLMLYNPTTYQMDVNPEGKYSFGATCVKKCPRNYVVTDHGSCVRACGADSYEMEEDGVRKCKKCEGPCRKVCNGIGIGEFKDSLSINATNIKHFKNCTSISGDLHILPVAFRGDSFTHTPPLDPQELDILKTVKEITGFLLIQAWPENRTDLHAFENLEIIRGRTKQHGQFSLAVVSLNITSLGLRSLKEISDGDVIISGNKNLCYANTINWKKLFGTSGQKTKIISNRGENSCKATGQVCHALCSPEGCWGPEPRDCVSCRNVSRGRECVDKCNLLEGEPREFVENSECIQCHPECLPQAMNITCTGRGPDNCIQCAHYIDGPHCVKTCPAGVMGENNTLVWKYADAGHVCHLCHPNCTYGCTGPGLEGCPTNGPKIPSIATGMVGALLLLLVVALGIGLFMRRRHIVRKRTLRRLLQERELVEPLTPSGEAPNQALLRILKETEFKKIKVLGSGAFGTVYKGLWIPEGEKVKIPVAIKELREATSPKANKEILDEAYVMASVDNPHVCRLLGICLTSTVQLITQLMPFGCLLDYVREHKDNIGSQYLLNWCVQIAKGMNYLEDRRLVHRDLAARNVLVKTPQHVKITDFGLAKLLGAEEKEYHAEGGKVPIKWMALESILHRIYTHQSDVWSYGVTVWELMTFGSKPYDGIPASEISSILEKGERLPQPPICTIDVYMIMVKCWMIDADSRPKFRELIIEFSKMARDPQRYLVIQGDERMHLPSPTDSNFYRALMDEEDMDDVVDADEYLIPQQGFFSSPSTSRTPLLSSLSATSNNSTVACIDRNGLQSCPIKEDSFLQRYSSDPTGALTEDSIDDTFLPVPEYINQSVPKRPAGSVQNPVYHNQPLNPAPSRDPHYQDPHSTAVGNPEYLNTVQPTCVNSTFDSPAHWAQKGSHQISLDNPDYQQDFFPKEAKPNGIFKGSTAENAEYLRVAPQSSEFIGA

For the compound `O=C(Nc1cccc(Nc2ccnc(Nc3cccc(C(F)(F)F)c3)n2)c1)C1CC1`, the IC50 in experiment [1] is 931 nM; in experiment [2], greater than 10000 nM. As to `O=C(Nc1cccc(Nc2cc(Nc3cccc(C(F)(F)F)c3)ncn2)c1)C1CC1`, the 50% inhibitory concentration (IC50) in experiment [1] was greater than 10000 nM; in experiment [2], 21 nM.

The compound `O=C(Nc1cccc(Nc2nccc(Nc3cccc(C(F)(F)F)c3)n2)c1)C1CC1` [ANILINOPYRIMIDINE1] yielded a 50% inhibitory concentration (IC50) in experiment [2] greater than 10000 nM.
